Test results reported in patent US20250302039A1, “USE OF N-SUBSTITUTED PYRROLIDONES TO PROMOTE THE PENETRATION OF AGROCHEMICAL ACTIVE AGENTS” (priority 2016, published 2025).

What was measured:
Assay type in all cases: physicochemical
[1] = Miscibility of N-(n-butyl)-2-pyrrolidone with solvents; conditions: with water, propylene glycol, polyethylene glycol, dimethylamide, Solvesso® 200 ND, alkylated vegetable oil or mineral oils
Excerpt: In addition, the N-substituted pyrrolidones of the formula (I) can also be combined advantageously with various water-immiscible solvents and may serve as cosolvents in solvent-containing formulations, for example in emulsion concentrates (EC), oil dispersions (OD), suspoemulsions (SE) and microemulsions (ME).

[2] = Solutions of active ingredients in N-(n-butyl)-2-pyrrolidone; conditions: solvent N-(n-butyl)-2-pyrrolidone; based on the total weight of the solution
[3] = Microscopy studies: crystallization behavior after 18 hours of drying; conditions: 1 g/L; 1 μL on silanized glass slide; 18 hours of drying at 25° C., 53% relative air humidity; 400× magnification
Excerpt: The following solutions 1) to 6) were produced:
Solution of 1 g of rynaxypyr in one liter of a mixture of acetone and distilled water at a weight ratio of acetone:distilled water of 30:70.
Solution of 1 g of rynaxypyr in one liter of a mixture of N-(n-butyl)-2-pyrrolidone and distilled water at a weight ratio of N-(n-butyl)-2-pyrrolidone:distilled water of 30:70.
Solution of 1 g of emamectin benzoate in one liter of a mixture of acetone and distilled water at a weight ratio of acetone:distilled water of 30:70.
Solution of 1 g of emamectin benzoate in one liter of a mixture of N-(n-butyl)-2-pyrrolidone and distilled water at a weight ratio of N-(n-butyl)-2-pyrrolidone:distilled water of 30:70.
Solution of 1 g of abamectin in one liter of a mixture of acetone and distilled water at a weight ratio of acetone:distilled water of 30:70.
Solution of 1 g of abamectin in one liter of a mixture of N-(n-butyl)-2-pyrrolidone and distilled water at a weight ratio of N-(n-butyl)-2-pyrrolidone:distilled water of 30:70.
The procedure as described hereinafter was followed with solutions 1) to 6) (see steps A) to C)): • A) 1 μL of the above-described solutions 1) to 6) in each case was applied to silanized glass microscope slides. • B) The solutions were left to stand on the microscope slides at a temperature of 25° C. and 53% relative air humidity over 18 hours, in the course of which drying took place. • C) Thereafter, the microscope slides were assessed and photos were taken at the original edge of the droplets with 400-fold magnification.
The photos for the active agrochemical ingredient abamectin are shown in FIG. 2A and FIG. 2B, those for the active agrochemical ingredient rynaxapyr in FIG. 3A and FIG. 3B, and those for the active agrochemical ingredient emamectin benzoate in FIG. 4A and FIG. 4B.

| Compound | miscibility with solvents [1] | amount of active ingredient in solutions prepared with N-(n-butyl)-2-pyrrolidone [2] | crystallization behavior in N-(n-butyl)-2-pyrrolidone/water (30:70) solution [3] | crystallization behavior in acetone/water (30:70) solution [3] |
| --- | --- | --- | --- | --- |
| CCCCN1CCCC1=O [N-(n-Butyl)-2-pyrrolidone, N-(n-butyl)-2-pyrrolidone] | miscible in all ratios | – | – | – |
| OC(Cc1ccccc1Cl)(Cn1nc[nH]c1=S)C1(Cl)CC1 (centres unmarked) [prothioconazole] | – | greater than 35 % by weight | – | – |
| CNC(=O)c1cc(Cl)cc(C)c1NC(=O)c1cc(Br)nn1-c1ncccc1Cl [rynaxypyr] | – | – | remaining dissolved | crystallized out |
| abamectin | – | – | remaining dissolved | crystallized out |
| emamectin benzoate | – | – | remaining dissolved | crystallized out |
